The subject of one assay is TH-ir neurons. As to the kind of experiment: Cell count of TH-ir neurons in rat neuron-glia cultures. The assay is classed as cell-based. Here is the method: For visual counting of TH-ir neurons after Immunostaining, nine representative areas per well of the 24-well plate were counted under the microscope at 100¥ magnification. To measure the average TH-ir dendrite, 50 TH-ir representative neurons in each well were selected and three wells for each treatment condition were selected. In addition, the average dendrite length of TH-ir neurons was measured (Liu Y X, Qin L, Wilson B C, An L, Hong J S and Liu B (2002b) Inhibition by naloxone stereoisomers of -amyloid peptide (1-42)-induced superoxide production in microglia and degeneration of cortical and mesencephalic neurons. J Pharmacol Exp Ther 302: 1212-1219.).
Rat mesencephalic neuron-glia cultures were pretreated for 30 min with vehicle or 1, 3, 10 μM MMT before adding LPS (2.5 to 5 ng/ml) to the cultures. One week later, the neurotoxic effect of LPS on DA neurons were assessed by both [H^3] DA uptake, which measures the functional capacity of high affinity uptake of DA cells and cell count of tyrosine hydroxylase-positive (TH-ir) cells. [H^3] […] MMT alone increased the uptake capacity by 30-80% in 3 and 10 μM of MMT, respectively. […] The neurotrophic effect of MMT is astrocyte-dependent. Astrocytes, not micrglia, contribute to the neurotrophic effect of MMT at 1-10 μM MMT (FIG. 10).
In addition to the pre-treatment experiments, similar studies using post-treatment designs were conducted to determine the efficacy of MMT. In these experiments, neuron-glia cultures were either treated with MMT (10 μM) and LPS (2.5 ng/ml) at the same time, or MMT was added 30, 60, 120 or 180 min after the addition of LPS. One week later, DA uptake of the culture was assayed.
DA neurons were recognized with the polyclonal antibody against tyrosine hydroxylase (TH) and microglia was detected with the OX-42 antibody against CR3 receptor. […] To quantify cell numbers, nine representative areas per well in the 24-well plate were counted under the microscope at 100× magnification by two individuals. […]

Another assay deals with microglia. Kind of assay: Intracellular reactive oxygen species assay (DCFH oxidation) after LPS. The assay is classed as cell-based. The conditions noted are these: 2 h after LPS. Here is the method: The production of intracellular reactive oxygen species (ROS) was measured by DCFH oxidation. The DCFH-DA reagent passively enters cell where it is de-acetylated by esterase to nonfluorescent DCFH. Inside the cell, DCFH reacts with ROS to form DCF, the fluorescent product. For this assay, 10 mM DCFH-DA was dissolved in methanol and was diluted 500-fold in HBSS to give a 20 μM concentration of DCFH-DA. Enriched-microglia cultures seeded (5×10^4) in 96-well plates were then exposed to DCFH-DA for 1 h, followed by treatment with HBSS containing several concentrations of LPS or substance P for 2 h. After incubation, the fluorescence was read at the 485 nm excitation and 530 nm emission on a fluorescence plate reader. […] To calculate the amount of intracellular ROS produced, the mean control treatment was subtracted from the mean treatment group.
(§1) Neuron-glia cultures were pretreated for 30 min with MMT (3 μM) or vehicle before LPS stimulation. […] Production of superoxide (30 min after LPS) and iROS (2 h after LPS) was decreased by MMT treatment (FIGS. 6A and 6B). […] The production of PGE2 in cultures pretreated with 3 and 10 μM MMT decreased by 23% and 27% respectively (FIG. 6E).

Another assay relates to nitric oxide. Kind of assay: Nitrite assay (Griess reagent) after LPS. In kind it is cell-based. The conditions noted are these: 24 and 48 h after LPS stimulation. Here is the method: As an indicator of nitric oxide production, the amount of nitrite accumulated in culture supernatant was determined with a colorimetric assay using Griess reagent [1% sulfanilamide, 2.5% H3PO4, 0.1% N-(1-naphthyl)ethylenediamine dihydrochloride]. Briefly, 50 μL of Griess reagent and 50 μL of culture supernatant were incubated in the dark at room temperature for 10 min. After incubation, the absorbance at 540 nm was determined with the Spectra Max Plus microplate spectrophotometer. The sample nitrite concentration was determined from a sodium nitrite standard curve.
as §1

Another assay concerns the target T1, gp 91 (Homo sapiens, UniProt P04839).
T1 sequence (P04839 1-570): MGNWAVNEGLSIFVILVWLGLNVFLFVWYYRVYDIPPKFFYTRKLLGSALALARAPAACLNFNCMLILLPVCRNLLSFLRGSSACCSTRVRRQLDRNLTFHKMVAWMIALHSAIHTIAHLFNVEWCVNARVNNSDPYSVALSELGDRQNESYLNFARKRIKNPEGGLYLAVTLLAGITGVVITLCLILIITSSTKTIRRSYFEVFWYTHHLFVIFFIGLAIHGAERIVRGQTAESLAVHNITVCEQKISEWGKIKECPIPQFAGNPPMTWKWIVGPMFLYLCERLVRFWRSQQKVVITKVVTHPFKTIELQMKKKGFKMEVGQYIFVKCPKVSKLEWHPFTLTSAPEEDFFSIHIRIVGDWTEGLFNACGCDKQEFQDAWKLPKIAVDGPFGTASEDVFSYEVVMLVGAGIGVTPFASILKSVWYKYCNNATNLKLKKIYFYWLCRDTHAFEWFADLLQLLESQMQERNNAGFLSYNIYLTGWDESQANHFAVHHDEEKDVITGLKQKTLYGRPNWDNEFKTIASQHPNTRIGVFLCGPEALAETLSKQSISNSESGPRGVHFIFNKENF
T1 sequence (P13498 1-195 partner): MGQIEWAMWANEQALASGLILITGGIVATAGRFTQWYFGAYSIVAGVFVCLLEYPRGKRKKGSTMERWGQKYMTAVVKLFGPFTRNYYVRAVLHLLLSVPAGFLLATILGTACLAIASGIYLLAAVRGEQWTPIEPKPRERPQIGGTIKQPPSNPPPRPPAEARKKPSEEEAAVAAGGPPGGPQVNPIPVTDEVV
Kind of assay: Competition of [3H]-labeled naloxine binding. The settings on record: preliminary data. The text has this:
Results from two sets of experiments support this conclusion. […] Thus, the failure for MMT to protect LPS-induced DA neurons toxicity in NADPH oxidase-deficient neuron/glia cultures implies a critical role of this enzyme in mediating the neuroprotective effect of MMT. The present invention determines the binding site of MMT in microglia.

For `CC12CC3CC(C)(C1)CC(N)(C3)C2.Cl` [MMT, 1-amino-3,5-dimethyladamantane hydrochloride], the “effect on LPS-induced reduction in the number of TH-ir neurons” value in the assay on TH-ir neurons (MMT 3 and 10 μM) is given as “significantly attenuated the LPS-induced reduction in the number of TH-ir neurons”. Further, in the assay on TH-ir neurons (MMT alone), the “growth of neurites (morphological observation)” value is given as “enhanced the growth of neurites” and the “number of TH-ir (DA) neurons vs vehicle control” value is “increased the survival DA neuron number”. Besides, the “production of iROS” value with microglia is on record as “decreased”. Besides, the “release of NO (measured as nitrite)” value with nitric oxide is “reduced”. Moreover, on gp 91, the “competing the binding of [3H]-labeled naloxine” value was “effective in competing the binding”.

Source of the values: US20150080475A1, “Memantine Protects Inflammation-Related Degeneration of Dopamine Neurons Through Inhibition of Over-Activated Microglia and Release of Neurotrophic Factors From Astroglia” (priority 2009, published 2015).
